Inhibition and IC50 data for 25 compounds are collected here from patent publication US12195469B2, “Compounds having PDE9A inhibitory activity, and pharmaceutical uses thereof” (KOREA RESEARCH INSTITUTE OF CHEMICAL TECHNOLOGY, priority 2018, dated 2025).

Structures are written as SMILES.

A word on the inhibition: it is the change of the read-out against control, counted positive when it falls. Read a low inhibition as a weak effect. What is called IC50 is the concentration that gives 50% inhibition. Read a low IC50 as greater potency.

PDE9A, sequence (O76083 whole entry): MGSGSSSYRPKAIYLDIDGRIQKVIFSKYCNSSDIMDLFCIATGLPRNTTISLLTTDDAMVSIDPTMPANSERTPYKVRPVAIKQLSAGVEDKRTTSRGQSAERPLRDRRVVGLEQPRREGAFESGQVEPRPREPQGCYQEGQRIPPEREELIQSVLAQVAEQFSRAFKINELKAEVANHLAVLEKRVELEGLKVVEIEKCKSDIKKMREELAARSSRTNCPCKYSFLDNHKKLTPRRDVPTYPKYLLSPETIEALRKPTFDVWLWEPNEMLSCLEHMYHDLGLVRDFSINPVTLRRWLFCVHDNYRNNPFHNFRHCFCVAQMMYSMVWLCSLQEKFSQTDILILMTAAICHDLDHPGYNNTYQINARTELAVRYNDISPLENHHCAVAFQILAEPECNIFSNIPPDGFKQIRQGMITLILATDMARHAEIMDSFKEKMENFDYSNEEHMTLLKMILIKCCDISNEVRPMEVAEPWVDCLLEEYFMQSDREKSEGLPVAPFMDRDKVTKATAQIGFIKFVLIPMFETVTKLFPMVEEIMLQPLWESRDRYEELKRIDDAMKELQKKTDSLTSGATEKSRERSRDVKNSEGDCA

For the first experiment, the target named is PDE9A (Homo sapiens (Human), UniProt O76083). Description: PDE9A inhibition, fluorescence polarization assay (IMAP-FP screening express kit). In kind it is biochemical. Conditions: 10 μM of the compound. The protocol:
The inhibitory activity of the representative compounds according to the present invention against phosphodiesterase 9A was tested based on the polarization assay (IMAP-FP screening express kit) provided by MDS (MDS Analytical Technologies, Sunyvale, CA, USA). As a buffer solution, a reaction solution (a reaction solution containing 0.01% Tween 20 provided by MDS was diluted 5 times, then 5 mM DTT is added) and a polarization detection solution (binding solution A and B provided by MDS were mixed at a ratio of 3:1 and IMAP binding reagent 1/600 was added) were prepared. 100 μM of the substrate (Fl-cGMP substrate; MDS) and 3.6 μg/ml of the enzyme PDE9A (ab54113; abcam) were prepared. 3.6 μg/ml PDE9A and 100 μM substrate were diluted to 20 ng/ml (final reaction concentration: 5 ng/ml) and 400 nM (final reaction concentration: 100 nM), respectively. The buffer solution used for all dilution and preparation processes was 1× reaction solution with 1 mM DTT added, and the polarization detection solution was used to induce polarization at the end.
The prepared samples were dispensed on black microplates (Multiwell 384 well plates, #3573, Corning Life Sciences, Lowell, MA, USA) using a 16-channel pipette (multi 16-channel, Finnpipette, Thermo Scientific, Essex, UK). The total reaction volume per well is 20 μl. At this time, 10 μl of 2% DMSO, 5 μl of substrate solution, and 5 μl of reaction solution were used as a negative control, and 10 μl of 2% DMSO, 5 μl of substrate solution, and 5 μl of PDE9A solution were used as a positive control. As the experimental group, 10 μl of the compound prepared in Example, 5 μl of the substrate solution, and 5 μl of the PDE9A solution were used. After pretreatment between the compound and the enzyme was performed for about 10 minutes before the enzyme-substrate reaction, 5 μl of cGMP was added to induce the enzyme reaction. During the reaction, each compound, enzyme, and substrate occupied 50%, 25%, and 25% of the total volume, respectively, and they were prepared at high concentrations of 2, 4, and 4 times, respectively, immediately before addition. After the enzymatic reaction, it was shaken lightly for 1 minute and the enzyme reaction was induced at room temperature for 1 hour. Then, 60 μl of a polarization detection solution prepared in advance was added to induce polarization.
Nanoparticles composed of trivalent metal ions are mixed in the fluorescence detection solution, which combines with phosphoric acid expose by enzymatic reaction to increase the molecular weight and induce polarization. After leaving for 2 hours at room temperature, the polarization (Fluorescence Polarization, FP) value was measured using a multilabel counter (Envision, PerkinElmer, Turku, Finland) (emission wavelength: P-535 nm, S-535 nm, excitation wavelength: 480 nm), and the result was expressed as an IC50 value, which is the concentration of the compound that inhibited PDE9A by 50% in vitro (Table 2).
In general terms: In fluorescence polarisation assays a small probe gives low polarisation when free and higher when bound to something large.
Compound `COc1ccc2nc(CSc3nc4c(cnn4-c4ccccc4)c(=O)[nH]3)oc2c1` [Example 35, 6-(((6-methoxybenzo[d]oxazol-2-yl)methyl)thio)-1-phenyl-1,5-dihydro-4H-pyrazolo[3,4-d]pyrimidin-4-one] displayed an inhibition at 10 µM of 83.6%.

`O=c1[nH]c(SCc2nc3cc(-c4ccccc4)ccc3o2)nc2c1cnn2-c1ccccc1` [Example 25, 1-phenyl-6-(((5-phenylbenzo[d]oxazol-2-yl)methyl)thio)-1,5-dihydro-4H-pyrazolo[3,4-d]pyrimidin-4-one]: the inhibition at 10 µM turned out to be 10.3%.

For the compound `O=c1[nH]c(SCc2nc3cc(Cl)cc(Cl)c3o2)nc2c1cnn2-c1ccccc1` [Example 32, 6-(((5,7-dichlorobenzo[d]oxazol-2-yl)methyl)thio)-1-phenyl-1,5-dihydro-4H-pyrazolo[3,4-d]pyrimidin-4-one], 10 µM produced 27.7% inhibition.

Staying with this experiment, now noted: Fl-cGMP substrate 100 nM, PDE9A 5 ng/ml, 1 hour at room temperature.
On to `O=c1[nH]c(SCc2nc3cc([N+](=O)[O-])ccc3o2)nc2c1cnn2C1CCOCC1` [Example 49, 6-(((5-nitrobenzo[d]oxazol-2-yl)methyl)thio)-1-(tetrahydro-2H-pyran-4-yl)-1,5-dihydro-4H-pyrazolo[3,4-d]pyrimidin-4-one], for which the IC50 was found to be 32 nM.

`O=c1[nH]c(SCc2nc3ccccc3o2)nc2c1cnn2C1CCSCC1` [Example 9, 6-((benzo[d]oxazol-2-ylmethyl)thio)-1-(tetrahydro-2H-thiopyran-4-yl)-1,5-dihydro-4H-pyrazolo[3,4-d]pyrimidin-4-one] returned an IC50 of 6 nM.

`Cc1ccc2nc(CSc3nc4c(cnn4C4CCSCC4)c(=O)[nH]3)oc2c1` [Example 15, 6-(((6-methylbenzo[d]oxazol-2-yl)methyl)thio)-1-(tetrahydro-2H-thiopyran-4-yl)-1,5-dihydro-4H-pyrazolo[3,4-d]pyrimidin-4-one] gave an IC50 of 10 nM.

`Cc1cc(C)c2oc(CSc3nc4c(cnn4C4CCC(F)(F)CC4)c(=O)[nH]3)nc2c1` [Example 44, 1-(4,4-difluorocyclohexyl)-6-(((5,7-dimethylbenzo[d]oxazol-2-yl)methyl)thio)-1,5-dihydro-4H-pyrazolo[3,4-d]pyrimidin-4-one] registered an IC50 of 15 nM.

Compound `CC(Sc1nc2c(cnn2C2CCOCC2)c(=O)[nH]1)c1nc2ccccc2o1` (stereo not shown) [Example 21] displayed an IC50 of 3 nM.

Take `O=c1[nH]c(SCc2nc3cc(Cl)c([N+](=O)[O-])cc3o2)nc2c1cnn2C1CCOCC1` [Example 51, 6-(((5-chloro-6-nitrobenzo[d]oxazol-2-yl)methyl)thio)-1-(tetrahydro-2H-pyran-4-yl)-1,5-dihydro-4H-pyrazolo[3,4-d]pyrimidin-4-one]: half-maximal inhibition (IC50) was put at 35 nM.

The compound `O=c1[nH]c(SCc2nc3cc(Br)ccc3o2)nc2c1cnn2-c1ccccc1` [Example 7, 6-(((5-bromobenzo[d]oxazol-2-yl)methyl)thio)-1-phenyl-1,5-dihydro-4H-pyrazolo[3,4-d]pyrimidin-4-one] registered an IC50 of 100 nM.

In turn, `O=c1[nH]c(SCc2nc3cc([N+](=O)[O-])ccc3o2)nc2c1cnn2-c1ccccc1` [Example 29, 6-(((5-nitrobenzo[d]oxazol-2-yl)methyl)thio)-1-phenyl-1,5-dihydro-4H-pyrazolo[3,4-d]pyrimidin-4-one] displayed an IC50 of 2400 nM.

Turning to `Cc1cc(C)c2oc(CSc3nc4c(cnn4C4CCOCC4)c(=O)[nH]3)nc2c1` [Example 55, 6-(((5,7-dimethylbenzo[d]oxazol-2-yl)methyl)thio)-1-(tetrahydro-2H-pyran-4-yl)-1,5-dihydro-4H-pyrazolo[3,4-d]pyrimidin-4-one], half-maximal inhibition (IC50) was put at 10 nM.

Take `Cc1ccc2nc(CSc3nc4c(cnn4C(C)C)c(=O)[nH]3)oc2c1` [Example 18, 6-(((6-methylbenzo[d]oxazol-2-yl)methyl)thio)-1-isopropyl-1,5-dihydro-4H-pyrazolo[3,4-d]pyrimidin-4-one]: the IC50 was determined as 4 nM.

In the case of `Cc1ccc2nc(CSc3nc4c(cnn4C4CCC(F)(F)CC4)c(=O)[nH]3)oc2c1` [Example 13, 6-(((6-methylbenzo[d]oxazol-2-yl)methyl)thio)-1-(4,4-difluorocyclohexyl)-1,5-dihydro-4H-pyrazolo[3,4-d]pyrimidin-4-one], the IC50 was found to be 12 nM.

Consider `O=c1[nH]c(SCc2nc3ccccc3o2)nc2c1cnn2-c1ccccc1` [Example 2, 6-((benzo[d]oxazol-2-ylmethyl)thio)-1-phenyl-1,5-dihydro-4H-pyrazolo[3,4-d]pyrimidin-4-one], for which the IC50 stood at 49 nM.

In the case of `O=c1[nH]c(SCc2nc3cc(C(F)(F)F)ccc3o2)nc2c1cnn2C1CCC(F)(F)CC1` [Example 47, 1-(4,4-difluorocyclohexyl)-6-(((5-(trifluoromethyl)benzo[d]oxazol-2-yl)methyl)thio)-1,5-dihydro-4H-pyrazolo[3,4-d]pyrimidin-4-one], the IC50 was 120 nM.

As to `O=c1[nH]c(SCc2nc3cc(Cl)c([N+](=O)[O-])cc3o2)nc2c1cnn2C1CCC(F)(F)CC1` [Example 40, 6-(((5-chloro-6-nitrobenzo[d]oxazol-2-yl)methyl)thio)-1-(4,4-difluorocyclohexyl)-1,5-dihydro-4H-pyrazolo[3,4-d]pyrimidin-4-one], 1660 nM corresponded to half-maximal inhibition (IC50).

On to `CC(Sc1nc2c(cnn2C2CCC(F)(F)CC2)c(=O)[nH]1)c1nc2ccccc2o1` (stereo not shown) [Example 20], for which the IC50 is 6 nM.

Consider `Cc1cccc2oc(CSc3nc4c(cnn4C4CCC(F)(F)CC4)c(=O)[nH]3)nc12` [Example 41, 1-(4,4-difluorocyclohexyl)-6-(((4-methylbenzo[d]oxazol-2-yl)methyl)thio)-1,5-dihydro-4H-pyrazolo[3,4-d]pyrimidin-4-one], for which the IC50 was 22 nM.

In the case of `O=c1[nH]c(SCc2nc3ccccc3o2)nc2c1cnn2C1CCC(F)(F)CC1` [Example 8, 6-((benzo[d]oxazol-2-ylmethyl)thio)-1-(4,4-difluorocyclohexyl)-1,5-dihydro-4H-pyrazolo[3,4-d]pyrimidin-4-one], the IC50 was 5 nM.

`Cc1ccc2nc(CSc3nc4c(cnn4C4CCOCC4)c(=O)[nH]3)oc2c1` [Example 14, 6-(((6-methylbenzo[d]oxazol-2-yl)methyl)thio)-1-(tetrahydro-2H-pyran-4-yl)-1,5-dihydro-4H-pyrazolo[3,4-d]pyrimidin-4-one] registered an IC50 of 4 nM.

In the case of `COc1ccc2oc(CSc3nc4c(cnn4-c4ccccc4)c(=O)[nH]3)nc2c1` [Example 34, 6-(((5-methoxybenzo[d]oxazol-2-yl)methyl)thio)-1-phenyl-1,5-dihydro-4H-pyrazolo[3,4-d]pyrimidin-4-one], 120 nM corresponded to half-maximal inhibition (IC50).

In the case of `Cc1cc(C)c2oc(CSc3nc4c(cnn4-c4ccccc4)c(=O)[nH]3)nc2c1` [Example 33, 6-(((5,7-dimethylbenzo[d]oxazol-2-yl)methyl)thio)-1-phenyl-1,5-dihydro-4H-pyrazolo[3,4-d]pyrimidin-4-one], the IC50 was determined as 950 nM.

`CC(C)n1ncc2c(=O)[nH]c(SCc3nc4ccccc4o3)nc21` [Example 11, 6-((benzo[d]oxazol-2-ylmethyl)thio)-1-isopropyl-1,5-dihydro-4H-pyrazolo[3,4-d]pyrimidin-4-one]: the IC50 is 6 nM.

The compound `Cc1ccc2nc(CSc3nc4c(cnn4C4CCCCC4)c(=O)[nH]3)oc2c1` [Example 16, 6-(((6-methylbenzo[d]oxazol-2-yl)methyl)thio)-1-cyclohexyl-1,5-dihydro-4H-pyrazolo[3,4-d]pyrimidin-4-one] yielded an IC50 of 6 nM.
